In PubChem BioAssay AID248 (DTP/NCI, 2004):
Where “and” joins values, the source holds several entries; their conditions need not be identical. Equal entries are not always repeated. Toxic doses and inconclusive results are not listed. No stated cut-off is given here; in the data, active means T/C of 150% or more; inactive means T/C below 125%. Peptide text beside a SMILES is read from it.

Tested on: L1210 leukemia ip in BDF1 mice, survival T/C
Test: NCI In Vivo Anticancer Drug Screen. Data for tumor model L1210 Leukemia (intraperitoneal) in B6D2F1 (BDF1) mice
Settings: endpoint: mean survival time, higher = longer survival
Method in brief: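 Value reflects the ratio of survival in compound-treated mice to survival in vehicle-treated controls, with both groups carrying the same transplanted tumor.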

[1] = dose: 100.0 mg/kg/injection, schedule: Q04DX003 (ip), vehicle: saline
[2] = dose: 200.0 mg/kg/injection, schedule: Q04DX003 (ip), vehicle: saline
[3] = dose: 400.0 mg/kg/injection, schedule: Q04DX003 (ip), vehicle: saline
[4] = dose: 100.0 mg/kg/injection, schedule: Q01DX001 (ip), vehicle: Klucel (hydroxypropylcellulose) (HPC)
[5] = dose: 100.0 mg/kg/injection, schedule: Q04DX003 (ip), vehicle: saline with Tween-80
[6] = dose: 200.0 mg/kg/injection, schedule: Q01DX001 (ip), vehicle: Klucel (hydroxypropylcellulose) (HPC)
[7] = dose: 200.0 mg/kg/injection, schedule: Q04DX003 (ip), vehicle: saline with Tween-80
[8] = dose: 400.0 mg/kg/injection, schedule: Q01DX001 (ip), vehicle: Klucel (hydroxypropylcellulose) (HPC)
[9] = dose: 400.0 mg/kg/injection, schedule: Q04DX003 (ip), vehicle: saline with Tween-80
[10] = dose: 100.0 mg/kg/injection, schedule: Q01DX001 (ip), vehicle: saline
[11] = dose: 200.0 mg/kg/injection, schedule: Q01DX001 (ip), vehicle: saline
[12] = dose: 100.0 mg/kg/injection, schedule: Q01DX009 (ip), vehicle: Klucel (hydroxypropylcellulose) (HPC)
[13] = dose: 200.0 mg/kg/injection, schedule: Q01DX009 (ip), vehicle: Klucel (hydroxypropylcellulose) (HPC)
[14] = dose: 100.0 mg/kg/injection, schedule: Q04DX003 (ip), vehicle: Klucel (hydroxypropylcellulose) (HPC)
[15] = dose: 200.0 mg/kg/injection, schedule: Q04DX003 (ip), vehicle: Klucel (hydroxypropylcellulose) (HPC)
[16] = dose: 400.0 mg/kg/injection, schedule: Q04DX003 (ip), vehicle: Klucel (hydroxypropylcellulose) (HPC)
[17] = dose: 50.0 mg/kg/injection, schedule: Q01DX001 (ip), vehicle: carboxymethylcellulose (CMC)
[18] = dose: 100.0 mg/kg/injection, schedule: Q01DX001 (ip), vehicle: carboxymethylcellulose (CMC)
[19] = dose: 200.0 mg/kg/injection, schedule: Q01DX001 (ip), vehicle: carboxymethylcellulose (CMC)
[20] = dose: 400.0 mg/kg/injection, schedule: Q01DX001 (ip), vehicle: saline

Measured: T/C

CCOC(=O)c1cnc2c(OC)cccc2c1Cl
inactive: dose: 100.0 mg/kg/injection, schedule: Q01DX009 (ip), vehicle: saline 98 % of control | [1] 102 % of control | dose: 200.0 mg/kg/injection, schedule: Q01DX009 (ip), vehicle: saline 96 % of control | [2] 109 % of control | [3] 98 % of control

O=C(Nc1cccc(C(F)(F)F)c1)Nc1cccc(C(F)(F)F)c1
inactive: [4] 94 % of control and 91 % of control | [5] 97 % of control and 87 % of control | [6] 98 % of control | [7] 99 % of control and 87 % of control | [8] 94 % of control | [9] 97 % of control and 89 % of control

CCOc1ccc(/C=N\NC(=O)CCCC(=O)N/N=C/c2ccc(OCC)c(OCC)c2)cc1OCC
inactive: dose: 50.0 mg/kg/injection, schedule: Q01DX001 (ip), vehicle: saline 103 % of control | [10] 95 % of control | [11] 87 % of control

O=C(Nc1ccc(Cl)c([N+](=O)[O-])c1)Nc1nnc(Br)s1
inactive: [12] 104 % of control | [13] 90 % of control | dose: 400.0 mg/kg/injection, schedule: Q01DX009 (ip), vehicle: Klucel (hydroxypropylcellulose) (HPC) 97 % of control

CC1=CC(C)(C)NC(=S)N1c1ccc(C)cc1
inactive: [14] 104 % of control | [15] 93 % of control | [16] 91 % of control

CN(C)C(=S)[S][Sn]([c]1ccccc1)([c]1ccccc1)[c]1ccccc1
inactive: dose: 1.25 mg/kg/injection, schedule: Q01DX009 (ip), vehicle: saline with Tween-80 88 % of control | dose: 1.25 mg/kg/injection, schedule: Q04DX003 (ip), vehicle: saline with Tween-80 99 % of control | dose: 2.5 mg/kg/injection, schedule: Q01DX009 (ip), vehicle: saline with Tween-80 93 % of control | dose: 2.5 mg/kg/injection, schedule: Q04DX003 (ip), vehicle: saline with Tween-80 99 % of control | dose: 5.0 mg/kg/injection, schedule: Q01DX001 (ip), vehicle: steriod suspending solution 95 % of control | dose: 5.0 mg/kg/injection, schedule: Q01DX009 (ip), vehicle: Klucel (hydroxypropylcellulose) (HPC) 101 % of control | dose: 5.0 mg/kg/injection, schedule: Q01DX009 (ip), vehicle: saline with Tween-80 106 % of control | dose: 5.0 mg/kg/injection, schedule: Q04DX003 (ip), vehicle: Klucel (hydroxypropylcellulose) (HPC) 92 % of control | dose: 5.0 mg/kg/injection, schedule: Q04DX003 (ip), vehicle: saline with Tween-80 98 % of control | dose: 10.0 mg/kg/injection, schedule: Q01DX001 (ip), vehicle: steriod suspending solution 101 % of control | dose: 10.0 mg/kg/injection, schedule: Q01DX009 (ip), vehicle: Klucel (hydroxypropylcellulose) (HPC) 92 % of control | dose: 10.0 mg/kg/injection, schedule: Q04DX003 (ip), vehicle: Klucel (hydroxypropylcellulose) (HPC) 97 % of control | dose: 20.0 mg/kg/injection, schedule: Q01DX009 (ip), vehicle: Klucel (hydroxypropylcellulose) (HPC) 103 % of control | dose: 20.0 mg/kg/injection, schedule: Q04DX003 (ip), vehicle: Klucel (hydroxypropylcellulose) (HPC) 91 % of control | dose: 40.0 mg/kg/injection, schedule: Q01DX001 (ip), vehicle: steriod suspending solution 92 % of control

COc1ccc(CCNC2C3CC4CC(C3)CC2C4)cc1OC (stereo unspecified)
inactive: [1] 94 % of control

C[N+](C)(C)Cc1c(CC(O)(c2ccccc2)c2ccccc2)ccc2ccccc12
inactive: [17] 102 % of control | [18] 94 % of control

N#CC(SC(=N)N)c1ccccc1 (stereo unspecified)
inactive: [10] 103 % of control | [11] 96 % of control

CC(NC(=O)C(CCC(=O)O)NC(=O)C(N)Cc1c[nH]c2ccccc12)C(=O)NCC(=O)NC(Cc1c[nH]c2ccccc12)C(=O)NC(CCC(=O)O)C(=O)NC(C)C(=O)NCC(=O)NCC(=O)O (stereo unspecified) (H-WEAGWEAGG-OH; configuration not given here)
inactive: [17] 96 % of control | [18] 98 % of control | [19] 96 % of control

O=C1CCC(NC(=O)C(F)(F)F)C(=O)O1 (stereo unspecified)
inactive: [14] 101 % of control | [15] 94 % of control | [16] 92 % of control

O=[N+]([O-])c1ccc(N=NN(CCF)CCF)cc1
inactive: dose: 6.25 mg/kg/injection, schedule: Q01DX Z (ip), vehicle: saline 93 % of control | dose: 10.0 mg/kg/injection, schedule: Q01DX Z (ip), vehicle: saline 97 % of control | dose: 30.0 mg/kg/injection, schedule: Q01DX Z (ip), vehicle: saline 108 % of control

Cc1cccc2c(Br)cccc12
inactive: [18] 97 % of control | [19] 95 % of control | dose: 400.0 mg/kg/injection, schedule: Q01DX001 (ip), vehicle: carboxymethylcellulose (CMC) 93 % of control

CCC(CC)=NNc1ccc([N+](=O)[O-])cc1[N+](=O)[O-]
inactive: [10] 95 % of control | [11] 97 % of control | [20] 97 % of control

NC12CCCCC1(O)CCCC2 (stereo unspecified)
inactive: dose: 75.0 mg/kg/injection, schedule: Q01DX001 (ip), vehicle: saline 101 % of control | dose: 150.0 mg/kg/injection, schedule: Q01DX001 (ip), vehicle: saline 101 % of control | dose: 300.0 mg/kg/injection, schedule: Q01DX001 (ip), vehicle: saline 95 % of control

NNc1ccccc1Br
inactive: [1] 101 % of control | [2] 102 % of control

CNS(C)(=O)=O
inactive: [10] 108 % of control | [1] 101 % of control | [11] 106 % of control | [2] 104 % of control | [20] 95 % of control | [3] 106 % of control

CC(C)(O)C(C)(O)c1ccc(Cl)cc1 (stereo unspecified)
inactive: dose: 25.0 mg/kg/injection, schedule: Q01DX009 (ip), vehicle: saline with Tween-80 93 % of control | dose: 25.0 mg/kg/injection, schedule: Q04DX003 (ip), vehicle: Klucel (hydroxypropylcellulose) (HPC) 101 % of control | dose: 50.0 mg/kg/injection, schedule: Q01DX009 (ip), vehicle: saline with Tween-80 102 % of control | dose: 50.0 mg/kg/injection, schedule: Q04DX003 (ip), vehicle: Klucel (hydroxypropylcellulose) (HPC) 101 % of control | dose: 100.0 mg/kg/injection, schedule: Q01DX009 (ip), vehicle: saline with Tween-80 98 % of control | [14] 101 % of control | dose: 200.0 mg/kg/injection, schedule: Q01DX009 (ip), vehicle: saline with Tween-80 104 % of control | [15] 106 % of control | dose: 400.0 mg/kg/injection, schedule: Q01DX009 (ip), vehicle: saline with Tween-80 94 % of control | [16] 95 % of control

CONC(=O)NC(=O)C1(c2ccccc2)CCCCC1
inactive: dose: 25.0 mg/kg/injection, schedule: Q01DX Z (ip), vehicle: carboxymethylcellulose (CMC) 96 % of control | dose: 50.0 mg/kg/injection, schedule: Q01DX Z (ip), vehicle: carboxymethylcellulose (CMC) 95 % of control | [10] 86 % of control | dose: 100.0 mg/kg/injection, schedule: Q01DX Z (ip), vehicle: carboxymethylcellulose (CMC) 95 % of control | [11] 100 % of control | dose: 200.0 mg/kg/injection, schedule: Q01DX Z (ip), vehicle: carboxymethylcellulose (CMC) 102 % of control | dose: 200.0 mg/kg/injection, schedule: Q01DX Z (ip), vehicle: methylcellulose (MC) 119 % of control | [20] 102 % of control | dose: 400.0 mg/kg/injection, schedule: Q01DX Z (ip), vehicle: carboxymethylcellulose (CMC) 96 % of control | dose: 400.0 mg/kg/injection, schedule: Q01DX Z (ip), vehicle: methylcellulose (MC) 112 % of control

CCN(CC)CCSSCCN(CC)CC.[Cl][Mn][Cl]
inactive: [10] 103 % of control

Oc1c(CN2CCOCC2)cc(N=Nc2ccccc2)c(O)c1CN1CCOCC1
inactive: [10] 88 % of control | [11] 104 % of control | [20] 88 % of control

Oc1ccccc1C=Nc1ccccc1N=Cc1ccccc1O
inactive: [4] 102 % of control | [6] 103 % of control | [8] 96 % of control

CC(C)(C)C1C(=O)N1C(C)(C)C (stereo unspecified)
inactive: [12] 103 % of control | [14] 101 % of control | [13] 101 % of control | [15] 97 % of control | [16] 97 % of control

O=C(CCCCC(=O)N/N=C\c1ccccc1O)N/N=C\c1ccccc1O
inactive: [5] 87 % of control | [7] 89 % of control | [9] 87 % of control
